# Values quoted from earlier work in patent publication US10864317B2, “Time controlled periodic infusion” (Ferrosan Medical Devices A/S, priority 2014, dated 2020).
# Test system: peripheral nerve
# Settings: ropivacaine as LA; dependent on regional and individual differences
smiles,measurement,value
CCCN1CCCC[C@H]1C(=O)Nc1c(C)cccc1C [ropivacaine],duration of pain relief for nerve blocks,about 12 h
